Measured values as given in paper PMC11579541, “In vitro, in vivo, and in silico approaches for evaluating the preclinical DMPK profiles of ammoxetine, a novel chiral serotonin and norepinephrine reuptake inhibitor” (Frontiers in Pharmacology, 2024).
Read-outs that look alike come from different tables or passages of the source.

Experiment: PK studies in beagle dogs
Format: in vivo
Settings: for AUC(0-inf) / AUC(0-t) / MRT last / MRT inf / Tmax / half-life / Cmax / CL/F / Vd/F: beagle; for MRT last: read-out: MRT(0-t); for MRT inf: read-out: MRT(0-∞); for half-life: read-out: t1/2z (converted); for CL/F: read-out: CLz/F (converted); for Vd/F: read-out: Vz/F
Protocol: For the PK studies in rats and dogs, a total of 18 SD rats and 15 male beagle dogs were randomly divided into three groups, with six rats or five dogs per group, respectively. Prior to the experiments, all animals underwent a 12-h fasting period, while having free access to water. The animals were administered single oral doses of ammoxetine in three different dose levels: 8 mg/kg, 20 mg/kg, and 50 mg/kg for rats, and 2 mg/kg, 5 mg/kg, and 12.5 mg/kg for dogs, representing low, medium, and high doses. Serial blood samples were collected from the rats at 0, 2, 5, 15, and 30 min, as well as 1, 2, 4, 6, 8, 12, and 24 h post-dosing. For the dogs, blood samples were collected at 0, 5, 15, 30, and 45 min, as well as 1, 2, 4, 6, 8, 12, and 24 h post-dosing. Approximately 0.3 mL of blood was collected from the rats, while 2 mL of blood was collected from the dogs. The blood samples were collected into heparinized tubes. Following centrifugation, plasma samples were obtained and stored at −30°C until further analysis.
For the absolute bioavailability (F, %) study in dogs, the dogs initially received a single gastric gavage of a low dose (2 mg/kg) of ammoxetine, followed by a 1-week washout period. After the washout, the same dose of ammoxetine was administered intravenously (i.v.). To assess the effects of nonfasting on ammoxetine PK, dogs that received a medium dose (5 mg/kg) of ammoxetine via gastric gavage underwent a radical washout period of 1 week. Subsequently, they were administered the same dose of ammoxetine via gastric gavage under nonfasting conditions. To compare sex differences in ammoxetine PK, an additional five female beagle dogs were administered a medium dose (5 mg/kg) of ammoxetine via gastric gavage after a 12-h overnight fast. Blood samples (2 mL) were collected from these dogs into heparinized tubes at predose and at specified time points: 5, 15, 30, and 45 min, as well as 1, 2, 4, 6, 8, 12, and 24 h postdose. For the repeat-dose study, after completing blood collection during the initial administration, dogs receiving a single gastric gavage of a medium dose (5 mg/kg) of ammoxetine under fasting conditions were subsequently orally dosed with seven repeat doses of ammoxetine (5 mg/kg) every 12 h. Trough blood samples were collected before the fourth to last administration to ensure steady-state blood concentrations (C ss ) were achieved. Approximately 2 mL of blood was collected at specified time points after the last dose and transferred into heparinized tubes. All blood samples were then centrifuged at 4,000 r/min for 20 min to obtain plasma samples, which were stored at −30°C until analysis.
To determine the concentration of ammoxetine, 100 μL of L-phencynonate (IS, 50 ng/mL) and 300 μL of methanol were added to 100 μL of plasma samples from rats or dogs. After thorough vortexing, the mixture was centrifuged at 13,800×g for 10 min. The supernatants were then subjected to analysis using LC-MS-MS methods. PK parameters were calculated using DAS (Drug And Statistics for Windows) version 2.0, developed by the Shanghai University of Traditional Chinese Medicine, Shanghai, China. The F was determined by comparing the plasma area under the concentration-time curve (AUC) values after oral (p.o.) and intravenous (i.v.) administration of ammoxetine. F was calculated using the formula: F=AUCp.o./AUCi.v.×100% . Statistical analyses were performed using OriginPro 8.6 software. Paired sample or student’s t-test, as well as one-way ANOVA, were employed to compare the means of two or three groups, with a significance level set at p < 0.05.

[1] = beagle dogs, 2 mg/kg p.o. vs i.v.
[2] = beagle dogs, 5 mg/kg oral every 12 h, last time of multiple administrations
[3] = dog, plasma, po, 5 mg/kg, beagle dogs, 5 mg/kg oral every 12 h, last time of multiple administrations
[4] = female, dog, plasma, po, 5 mg/kg, female beagle dogs, 5 mg/kg oral, fasted
[5] = male, dog, plasma, iv, 2 mg/kg, beagle dogs, 2 mg/kg intravenous administration
[6] = male, dog, plasma, po, 2 mg/kg, beagle dogs, 2 mg/kg single oral dose
[7] = male, dog, plasma, po, 5 mg/kg, beagle dogs, 5 mg/kg oral every 12 h, last time of multiple administrations
[8] = male, dog, plasma, po, 5 mg/kg, beagle dogs, 5 mg/kg oral, fed (nonfasting)
[9] = male, dog, plasma, po, 5 mg/kg, male beagle dogs, 5 mg/kg single oral dose, fasted (first dose)
[10] = male, dog, plasma, po, 12.5 mg/kg, beagle dogs, 12.5 mg/kg single oral dose

- F (absolute bioavailability) based on AUC(0-t) [1]: 41.76 ± 9.25%
- F (absolute bioavailability) based on AUC(0-∞) [1]: 41.94 ± 9.31%
- trough concentration (beagle dogs, 5 mg/kg oral every 12 h, before the 4th dose): 84.17 ± 50.58 ng/mL
- trough concentration (beagle dogs, 5 mg/kg oral every 12 h, before the 5th dose): 64.21 ± 31.71 ng/mL
- trough concentration (beagle dogs, 5 mg/kg oral every 12 h, before the 6th dose): 86.13 ± 43.95 ng/mL
- trough concentration (beagle dogs, 5 mg/kg oral every 12 h, before the 7th dose): 95.71 ± 39.83 ng/mL
- Cav [2]: 337.19 ± 112.27 µg/L
- Cmin [2]: 95.71 ± 39.83 µg/L
- DF (degree of fluctuation) [2]: 2.00 ± 0.45
- AUC(0-inf) [3]: 5000 ng·h/mL
- AUC(0-t) [3]: 4900 ng·h/mL
- MRT last [3]: 5.76 ± 0.6 h
- MRT inf [3]: 6.21 ± 0.73 h
- Tmax (dog, plasma, po, 5 mg/kg, beagle dogs, 5 mg/kg oral every 12 h, last time of multiple administrations, read-out: Tmax): 66 ± 31.2 min
- half-life [3]: 248 ± 51 min
- AUC (dog, plasma, beagle dogs, 5 mg/kg oral every 12 h, last time of multiple administrations): 4050 ng·h/mL
- AUC(0-inf) [4]: 1660 ng·h/mL
- AUC(0-t) [4]: 1640 ng·h/mL
- Cmax [4]: 476 ± 284 ng/mL
- CL/F [4]: 71.5 mL/min/kg
- MRT last [4]: 3.74 ± 0.78 h
- MRT inf [4]: 3.88 ± 0.83 h
- Tmax (female, dog, plasma, po, 5 mg/kg, female beagle dogs, 5 mg/kg oral, fasted, read-out: Tmax): 51 ± 13.2 min
- Vd/F [4]: 20.9 ± 12.3 L/kg
- half-life [4]: 207 ± 24 min
- AUC(0-inf) [5]: 1010 ng·h/mL
- AUC(0-t) [5]: 1010 ng·h/mL
- Cmax [5]: 649 ± 119 ng/mL
- MRT last [5]: 2.3 ± 0.29 h
- MRT inf [5]: 2.33 ± 0.29 h
- Tmax (male, dog, plasma, iv, 2 mg/kg, beagle dogs, 2 mg/kg intravenous administration, read-out: Tmax): 3 ± 1.8 min
- half-life [5]: 163 ± 30.6 min
- AUC(0-inf) [6]: 420 ± 108 ng·h/mL
- AUC(0-t) [6]: 418 ± 108 ng·h/mL
- Cmax [6]: 165 ± 49.5 ng/mL
- CL/F [6]: 83.5 mL/min/kg
- MRT last [6]: 2.94 ± 0.55 h
- MRT inf [6]: 3.08 ± 0.69 h
- Tmax (male, dog, plasma, po, 2 mg/kg, beagle dogs, 2 mg/kg single oral dose, read-out: Tmax): 45 ± 10.8 min
- Vd/F [6]: 24.9 ± 13 L/kg
- half-life [6]: 204 ± 76.8 min
- Cmax [7]: 761 ± 254 ng/mL
- CL/F [7]: 18.7 mL/min/kg
- Vd/F [7]: 6.63 ± 2.77 L/kg
- AUC(0-inf) [8]: 1960 ± 742 ng·h/mL
- AUC(0-t) [8]: 1950 ± 738 ng·h/mL
- Cmax [8]: 522 ± 234 ng/mL
- CL/F [8]: 49.3 mL/min/kg
- MRT last [8]: 4.14 ± 0.54 h
- MRT inf [8]: 4.28 ± 0.59 h
- Tmax (male, dog, plasma, po, 5 mg/kg, beagle dogs, 5 mg/kg oral, fed (nonfasting), read-out: Tmax): 48 ± 12.6 min
- Vd/F [8]: 14 ± 6.8 L/kg
- half-life [8]: 197 ± 16.8 min
- AUC(0-inf) [9]: 1980 ± 533 ng·h/mL
- AUC(0-t) [9]: 1960 ± 527 ng·h/mL
- Cmax [9]: 524 ± 214 ng/mL
- CL/F [9]: 45.2 mL/min/kg
- MRT last [9]: 4.4 ± 0.65 h
- MRT inf [9]: 4.7 ± 0.85 h
- Tmax (male, dog, plasma, po, 5 mg/kg, male beagle dogs, 5 mg/kg single oral dose, fasted (first dose), read-out: Tmax): 48 ± 6.6 min
- Vd/F [9]: 14.9 ± 5.08 L/kg
- half-life [9]: 229 ± 31.2 min
- AUC(0-inf) [10]: 8400 ng·h/mL
- AUC(0-t) [10]: 7900 ng·h/mL
- Cmax [10]: 1470 ng/mL
- CL/F [10]: 25.8 mL/min/kg
- MRT last [10]: 5.43 ± 1.18 h
- MRT inf [10]: 7.53 ± 4.7 h
- Tmax (male, dog, plasma, po, 12.5 mg/kg, beagle dogs, 12.5 mg/kg single oral dose, read-out: Tmax): 84 ± 36 min
- Vd/F [10]: 13.9 ± 11 L/kg
- half-life [10]: 372 ± 266 min
- Tmax (male, dog, plasma, po, 12.5 mg/kg, beagle dogs, oral 2, 5 and 12.5 mg/kg, read-out: Tmax values, range): 45 to 84 min
- bioavailability (male, dog, plasma, oral, beagle dogs, 2 mg/kg, approximate value, read-out: absolute bioavailability): ~42%
- clearance (male, dog, plasma, beagle dogs, 2 mg/kg intravenous administration, total clearance, read-out: CLz (converted)): 34 mL/min/kg
- Vd (male, dog, plasma, beagle dogs, 2 mg/kg intravenous administration, volume of distribution, read-out: Vz): 7.82 ± 1.2 L/kg
Structure (SMILES): CNCC[C@H](Oc1cccc2c1OCO2)c1cccs1 [ammoxetine]
